Paper PMC12121771, “Innovation of eco-friendly TiO2 nano catalyst for new pyrimidine carbonitiriles candidates, assessed for significant antioxidant activity, anti-inflammatory effects, and by insilico studies” (PLOS One, 2025)
≈ marks a conversion by molar mass, not a printed value.

How the values were obtained:
hERG = settings: similar compounds listed by Pred-hERG/LabMol, Fig 9 and Fig 10, reference not given; cited from earlier work
[1] = DPPH radical scavenging method (antioxidant activity); settings: for IC50ug/ml (DPPH scavenging): 0.1 mM DPPH in ethanol, 30 minutes, absorbance 517 nm, triplicate; for IC50: IC50 ug/ml converted with molecular wt
Method: The antioxidant activity of the newly synthesized compounds was evaluated using DPPH (2, 2-diphenyl-1-picrylhydrazyl (DPPH) assay). This assay measures the ability of a compound to neutralize the stable free radical DPPH by donating an electron or hydrogen atom. The results are illustrated in Table 2 and Fig 3. All the tests and analyses were undertaken in three replicates, and the results were averaged.
Different compounds’ free radical scavenging activity was measured by 1, 1- diphenyl-2-[…] (DPPH). In brief, a 0.1 mM solution of DPPH in ethanol was prepared. This solution (1 ml) was added to 3 ml. of the different compounds in ethanol at various concentrations (3.9, 7.8, 15.62, 31.25, 62.5, 125, 250, 500, 1000 μg/ml). Here, only those compounds solubilized in ethanol and their various concentrations were prepared by dilution. The mixture was shaken vigorously and allowed to stand at room temperature for 30 minutes. Then, absorbance was measured at 517 nm by using a spectrophotometer (UV-VIS Milton Roy). The reference standard compound used was ascorbic acid, and the experiment was done in triplicate. The IC 50 value of the sample, which is the concentration of sample required to inhibit 50% of the DPPH free radical, was calculated using the Log dose inhibition curve. The lower absorbance of the reaction mixture indicates higher free radical activity. The percent DPPH scavenging effect was calculated using the following equation: DPPH scavenging effect (%), or percent inhibition = A0 - A 1/ A0 × 100. A0 is the absorbance of the control reaction, and A1 is the absorbance in the presence of a test or standard sample [39].

[2] = Hemolytic assay (HRBC membrane stabilization, anti-inflammatory activity); type: cell-based, human; settings: human, human red blood cells, 2% suspension, pH 7.4, 2% RBC, 1 hour 37°C; for hemolysis at 1 h, 100 ug/ml: Conc. 100 ug/ml; for hemolysis at 1 h, 200 ug/ml: Conc. 200 ug/ml; for hemolysis at 1 h, 400 ug/ml: Conc. 400 ug/ml; for hemolysis at 1 h, 600 ug/ml: Conc. 600 ug/ml; for hemolysis at 1 h, 800 ug/ml: Conc. 800 ug/ml; for hemolysis at 1 h, 1000 ug/ml: Conc. 1000 ug/ml
Method: (§1) The hemolysis essay of the synthesized compounds is summarized in Table 3 and Fig 4; the mean absorption rate of the samples, with isotonic solution Ab, and hemolysis % were calculated with a standard deviation. HRBC and membrane stabilization assay results provide valuable information about the potential anti-inflammatory effects of the newly synthesized pyrimidine carbonitrile derivatives. […] The results for the anti-inflammatory activity are in agreement and homogenous with those obtained from the antioxidant activity of the same compounds, as shown in Table 3. The interconnection between inflammation and oxidative stress plays a vital role in the induction of several chronic diseases, such as diabetes, rheumatoid arthritis, and inflammatory bowel disease—inflammation results in the release of inflammatory mediators and, subsequently, tissue damage. Oxidative stress occurs due to an imbalance between the production of the reactive oxygen species and the ability of the body to neutralize them. Several cellular mechanisms are involved in the anti-inflammatory activity of the tested compounds. […] The cellular mechanism of action was detected by suppression of myeloperoxidase and granulocyte superoxide formation. […] In addition, other mechanisms may explain the anti-inflammatory activity through the inhibitory effect on […] and lipo-oxygenase enzymes.
(§2) The hemolytic assay was performed using the method reported in [37, 40, 41]. Freshly collected human red blood cells were washed thrice with 150 mM NaCl (2500 rpm for 10 minutes). The plasma was removed, and the cells were suspended in phosphate buffer saline (pH 7.4) for 2% RBC concentration. Double-folded dilution concentrations (1000, 800, 600, 400, 200, 100, 50 μg/ml) of the compound were mixed with […] of RBC solutions, and the final reaction mixture volume was measured up to 1 ml by adding PBS. The reaction mixture was then placed in the water bath for 1 hour at 37°C. After incubation, the reaction mixture was centrifuged at 2500 rpm for 15 minutes. The supernatant was collected, and the optical density was measured at 541 nm, keeping the phosphate buffer saline blank. Deionized water was used as a positive control. The experiment was carried out in triplicate, and the mean ± SD was calculated.
(§3) Percentageofhemolysis=Absorbanceofsample−Absorbanceofblank×100/Absorbanceofpositivecontrol

human red blood cells = assay: as above; type: cell-based; settings: Conc. 100 ug/ml, 2% RBC, 1 hour 37°C
Method: as §1, §2, §3

Row | IC50ug/ml (DPPH scavenging) [1] [µg/mL] | IC50 [1] [µM] | SMILES | hERG Blocker / Non-Blocker annotation of similar compounds (hERG) | hemolysis at 1 h, 100 ug/ml [2] [%] | hemolysis at 1 h, 200 ug/ml [2] [%] | hemolysis at 1 h, 400 ug/ml [2] [%] | hemolysis at 1 h, 600 ug/ml [2] [%] | hemolysis at 1 h, 800 ug/ml [2] [%] | hemolysis at 1 h, 1000 ug/ml [2] [%] | Hemolysis % (human red blood cells)
1 |  |  | N#Cc1c(-c2ccccc2)cc(-c2ccccc2)nc1N=C1SC(=C2SC(C(=O)Nc3ccccc3)=NN2c2ccccc2)C(=O)N1c1ccccc1 [CHEMBL3408396] | Blocker |  |  |  |  |  |  | 
2 | 4.63 (≈ 26.3 µM) | 26.3 | O=C1O[C@H]([C@@H](O)CO)C(O)=C1O [Ascorbic acid, reference compound] |  |  |  |  |  |  |  | 
3 |  |  | N#Cc1c(-c2ccccc2)cc(-c2ccccc2)nc1N=c1sc(C(=O)Nc2ccccc2)nn1-c1ccccc1 [CHEMBL3408390] | Blocker |  |  |  |  |  |  | 
4 | 46.69 (≈ 158 µM) |  | N#Cc1ccc(C2N=C3SCC(=O)N3C(=O)C2C#N)cc1 (centres unmarked) [Compound 6, 7-(4-Cyanophenyl)-3,5-dioxo-2,3,6,7-tetrahydro-5H-thiazolo[3,2-a]pyrimidine-6-carbonitrile] |  | 2.1 | 3.1 | 4 | 4.6 | 12.8 | 14.3 | 
5 | 212.28 (≈ 643 µM) | 643 | N#Cc1ccc(C2N=C(NNc3ccccc3)NC(=O)C2C#N)cc1 (centres unmarked) [Compound 9, 4-(4-Cyanophenyl)-6-oxo-2-(2-phenylhydrazine)-1,4,5,6-tetrahydro pyrimidine-5-carbonitrile] |  | 2.9 | 4.3 | 5 | 9 | 10 | 14.4 | 
6 |  |  | CC(=O)C1=NN(c2ccccc2)C(=C2SC(=Nc3nc(-c4ccccc4)cc(-c4ccccc4)c3C#N)N(c3ccccc3)C2=O)S1 [CHEMBL3408394] | Blocker |  |  |  |  |  |  | 
7 | 35.9 (≈ 122 µM) | 122 | N#CCSC1=NC(c2ccc(C#N)cc2)C(C#N)C(=O)N1 (centres unmarked) [Compound 3, 2-((Cyanomethyl)thio)-4-(4-cyanophenyl)-6-oxo-1,4,5,6-trtrahydropyrimidine-5-carbonitrile] |  | 0.1 | 0.3 | 0.7 | 1.2 | 2.3 |  | 
8 | 25.13 (≈ 98.1 µM) | 98.1 | N#Cc1ccc(C2NC(=S)NC(=O)C2C#N)cc1 (centres unmarked) [Compound 1, 4-(4-cyanophenyl)-6-oxo-2-thioxohexahydropyrimidine-5-carbonitrile] |  | 7.5 | 9.5 | 12 | 12.4 | 13.2 | 13.9 | 
9 | 10.09 (≈ 37.3 µM) |  | CSC1=NC(c2ccc(C#N)cc2)C(C#N)C(=O)N1 (centres unmarked) [Compound 2, 4-(4-Cyanophenyl)-2-(methylthio)-6-oxo-1,4,5,6-tetrahydro pyrimidine-5-carbonitrile] |  | 0 | 0.1 | 0.1 | 0.3 | 0.3 | 2.2 | no hemolysis
10 | 6.21 (≈ 16.7 µM) | 16.7 | N#Cc1ccc(C2N=C(Nc3nc4ccccc4s3)NC(=O)C2C#N)cc1 (centres unmarked) [Compound 8, 2-(Benzo[d]thiazol-2-ylamino)-4-(4-cyanophenyl)-6-oxo-1,4,5,6-tetrahydro pyrimidine-5-carbonitrile] |  | 0 | 0.1 | 0.9 | 1.3 | 3 | 3.7 | no hemolysis
11 |  |  | N#Cc1c(-c2ccccc2)cc(-c2ccccc2)nc1N=C1SC(=C2SC(c3ccccc3)=NN2c2ccccc2)C(=O)N1c1ccccc1 [CHEMBL3408393] | Blocker |  |  |  |  |  |  | 
12 |  |  | Cc1cc(C=C2SC(=Nc3ccccc3)NC2=O)c(C)n1-c1ccccc1 [CHEMBL599702] | Non-Blocker |  |  |  |  |  |  | 
13 | 35.31 (≈ 113 µM) | 113 | CC(=O)CSC1=NC(c2ccc(C#N)cc2)C(C#N)C(=O)N1 (centres unmarked) [Compound 4, 4-(4-Cyanophenyl)-6-oxo-2-((2-oxo-propyl)thio)-1,4,5,6-tetrahydro-pyrimidine-5-carbonitrile] |  | 1.3 | 1.8 | 3.6 | 5.9 | 7.8 | 9.3 | 
14 |  |  | CCOC(=O)C1=NN(c2ccccc2)C(=C2SC(=Nc3nc(-c4ccccc4)cc(-c4ccccc4)c3C#N)N(c3ccccc3)C2=O)S1 [CHEMBL3408395] | Blocker |  |  |  |  |  |  | 

Row | SMILES | IC50ug/ml (DPPH scavenging) [1] [µg/mL] | IC50 [1] [µM] | hERG Blocker / Non-Blocker annotation of similar compounds (hERG) | hemolysis at 1 h, 100 ug/ml [2] [%] | hemolysis at 1 h, 200 ug/ml [2] [%] | hemolysis at 1 h, 400 ug/ml [2] [%] | hemolysis at 1 h, 600 ug/ml [2] [%] | hemolysis at 1 h, 800 ug/ml [2] [%] | hemolysis at 1 h, 1000 ug/ml [2] [%] | Hemolysis % (human red blood cells)
15 | N#Cc1ccc(C2N=C3SCC=C(N)N3C(=O)C2C#N)cc1 (centres unmarked) [Compound 5, 4-Amino-8-(4-cyanophenyl)-6-oxo-7,8-dihydro-2H,6H-pyrimido[2,1-b][1,3]thiazine-7-carbonitrile] | 5.62 (≈ 18.2 µM) | 18.2 |  | 0.2 | 0.4 | 1.4 | 5.5 | 5.9 | 7 | 
